Experimental data taken from patent US9573913B2, “Cathepsin cysteine protease inhibitors” (Merck Sharp & Dohme Corp., priority 2013, dated 2017).

Legend:
human cathepsin F = target: T1, human cathepsin F (Homo sapiens, UniProt Q9UBX1); assay: Cathepsin F assay (hCat F); format: biochemical; settings: Z-Phe-Arg-AMC substrate, pH 5.5, 15 min preincubation; read-out: hCat F (IP (nM))
T1 sequence (Q9UBX1 271-484): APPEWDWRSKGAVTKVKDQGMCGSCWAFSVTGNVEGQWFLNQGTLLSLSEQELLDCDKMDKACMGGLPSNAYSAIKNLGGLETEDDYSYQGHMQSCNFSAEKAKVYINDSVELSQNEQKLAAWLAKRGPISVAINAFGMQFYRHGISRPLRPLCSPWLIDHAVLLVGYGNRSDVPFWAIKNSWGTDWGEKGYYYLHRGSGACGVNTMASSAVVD
In short: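 Enzyme (10 nM) was preincubated 15 min at room temperature with compounds (1/3 DMSO dilution series, 500–0.025 μM) in 50 mM MES pH 5.5, 2.5 mM EDTA, 2.5 mM DTT, 10% DMSO. Z-Phe-Arg-AMC (8 μM) was added and AMC fluorescence (Ex 360/Em 460 nm) followed for 20 min. % inhibition was fitted to dose-response curves.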

human cathepsin K = human cathepsin K (UniProt P43236); assay: Cathepsin K Assay (hrbCat K); format: biochemical; settings: Z-Leu-Arg-AMC substrate, pH 5.5, 15 min preincubation; read-out: hrbCat K (IP (nM))
In short: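 Human cathepsin K (0.4 nM) was preincubated 15 min at room temperature with compound in 50 mM MES pH 5.5, 2.5 mM EDTA, 2.5 mM DTT and 10% DMSO. Inhibition was fitted to a dose-response model.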

N#CC1(NC(=O)[C@@H]2CCCC[C@H]2c2nc(N3CCC4(CC3)CC4)sc2-c2ccc(N3CCS(=O)(=O)CC3)cc2)CC1 [Example 102, (1R,2R)-N-(1-cyanocyclopropyl)-2-(5-(4-(1,1-dioxidothiomorpho-lino)phenyl)-2-(6-azaspiro[2.5]octan-6-yl)thiazol-4-yl)cyclohexane-carboxamide]
IC50 (human cathepsin F): 1000 nM
IC50 (human cathepsin K): 2.4 nM

N#CC1(NC(=O)[C@@H]2CCCC[C@H]2c2nc(N3CCOC(c4ccccc4)C3)sc2-c2ccc(N3CCS(=O)(=O)CC3)cc2)CC1 (stereo partly drawn) [Example 103, (1R,2R)-N-(1-cyanocyclopropyl)-2-(5-(4-(1,1-dioxidothiomorpho-lino)phenyl)-2-(2-phenylmorpholino)thiazol-4-yl)cyclohexane-carboxamide]
IC50 (human cathepsin F): 1000 nM
IC50 (human cathepsin K): 1.2 nM

N#CC1(NC(=O)[C@@H]2CCCC[C@H]2c2nc(N3CCCC(F)(F)C3)sc2-c2ccc(N3CCS(=O)(=O)CC3)cc2)CC1 [Example 106, (1R,2R)-N-(1-cyanocyclopropyl)-2-(2-(3,3-difluoropiperidin-1-yl)-5-(4-(1,1-dioxidothiomorpho-lino)phenyl)thiazol-4-yl)cyclohexane-carboxamide]
IC50 (human cathepsin F): ≥ 10000 nM
IC50 (human cathepsin K): 2.9 nM

N#CC1(NC(=O)[C@@H]2CCC(F)(F)C[C@H]2c2nc(-c3ccc(F)cn3)sc2-c2ccc(N3CCS(=O)(=O)CC3)cc2)CC1 [Example 107, (1R,2R)-N-(1-cyanocyclopropyl)-2-(5-(4-(1,1-dioxidothiomorpho-lino)phenyl)-2-(5-fluoropyridin-2-yl)thiazol-4-yl)-4,4-difluorocyclohexane-carboxamide]
IC50 (human cathepsin F): 1000 nM
IC50 (human cathepsin K): 3.3 nM

N#CC1(NC(=O)[C@@H]2CCCC[C@H]2c2nc(-c3cccc(C4CCOCC4)c3)sc2-c2ccc(N3CCS(=O)(=O)CC3)cc2)CC1 [Example 110, (1R,2R)-N-(1-cyanocyclopropyl)-2-(5-(4-(1,1-dioxidothiomorpho-lino)phenyl)-2-(3-(tetrahydro-2H-pyran-4-yl)phenyl)thiazol-4-yl)cyclohexane-carboxamide]
IC50 (human cathepsin F): 3330 nM
IC50 (human cathepsin K): 1.7 nM

COc1ccc(-c2nc([C@@H]3CC[C@H](F)C[C@H]3C(=O)NC3(C#N)CC3)c(-c3ccc(N4CCS(=O)(=O)CC4)cc3)s2)nc1 [Example 114, (1R,2R,5S)-N-(1-cyanocyclopropyl)-2-(5-(4-(1,1-dioxidothiomorpho-lino)phenyl)-2-(5-methoxypyridin-2-yl)thiazol-4-yl)-5-fluorocyclohexane-carboxamide]
IC50 (human cathepsin F): 1000 nM
IC50 (human cathepsin K): 1.1 nM

N#CC1(NC(=O)[C@@H]2CCC(F)(F)C[C@H]2c2nc(-c3cncc(Cl)c3)sc2-c2ccc(N3CCS(=O)(=O)CC3)cc2)CC1 [Example 115, (1R,2R)-2-(2-(5-chloropyridin-3-yl)-5-(4-(1,1-dioxidothiomorpho-lino)phenyl)thiazol-4-yl)-N-(1-cyanocyclopropyl)-4,4-difluorocyclohexane-carboxamide]
IC50 (human cathepsin F): 2660 nM
IC50 (human cathepsin K): 2.2 nM

N#CC1(NC(=O)[C@@H]2C[C@@H](F)CC[C@H]2c2nc(N3CCOCC3)sc2-c2ccc(N3CCS(=O)(=O)CC3)cc2)CC1 [Example 116, (1R,2R,5S)-N-(1-cyanocyclopropyl)-2-(5-(4-(1,1-dioxidothiomorpho-lino)phenyl)-2-morpholinothiazol-4-yl)-5-fluorocyclohexane-carboxamide]
IC50 (human cathepsin F): 1000 nM
IC50 (human cathepsin K): 2.4 nM

N#CC1(NC(=O)[C@@H]2CCCC[C@H]2c2nc(N3CC(F)(F)C3)sc2-c2ccc(N3CCS(=O)(=O)CC3)cc2)CC1 [Example 117, (1R,2R)-N-(1-cyanocyclopropyl)-2-(2-(3,3-difluoroazetidin-1-yl)-5-(4-(1,1-dioxidothiomorpho-lino)phenyl)thiazol-4-yl)cyclohexane-carboxamide]
IC50 (human cathepsin F): ≥ 10000 nM
IC50 (human cathepsin K): 8 nM

N#CC1(NC(=O)[C@@H]2CCCC[C@H]2c2nc(-c3ccnc(C(F)(F)F)n3)sc2-c2ccc(N3CCS(=O)(=O)CC3)cc2)CC1 [Example 118, (1R,2R)-N-(1-cyanocyclopropyl)-2-(5-(4-(1,1-dioxidothiomorpho-lino)phenyl)-2-(2-(trifluoromethyl)pyrimidin-4-yl)thiazol-4-yl)cyclohexane-carboxamide]
IC50 (human cathepsin F): ≥ 10000 nM
IC50 (human cathepsin K): 59.4 nM

Cc1nccc(-c2nc([C@@H]3CCCC[C@H]3C(=O)NC3(C#N)CC3)c(-c3ccc(N4CCS(=O)(=O)CC4)cc3)s2)n1 [Example 119, (1R,2R)-N-(1-cyanocyclopropyl)-2-(5-(4-(1,1-dioxidothiomorpho-lino)phenyl)-2-(2-methylpyrimidin-4-yl)thiazol-4-yl)cyclohexane-carboxamide]
IC50 (human cathepsin F): 1200 nM
IC50 (human cathepsin K): 1.3 nM

N#CC1(NC(=O)[C@@H]2CCCC[C@H]2c2nc(-c3ccc4c(c3)OCCO4)sc2-c2ccc(N3CCS(=O)(=O)CC3)cc2)CC1 [Example 120, (1R,2R)-N-(1-cyanocyclopropyl)-2-(2-(2,3-dihydrobenzo[b][1,4]dioxin-6-yl)-5-(4-(1,1-dioxidothiomorpho-lino)phenyl)thiazol-4-yl)cyclohexane-carboxamide]
IC50 (human cathepsin F): 1110 nM
IC50 (human cathepsin K): 1.4 nM

N#CC1(NC(=O)[C@@H]2CCCC[C@H]2c2nc(-c3ccc(C4CCOCC4)cc3)sc2-c2ccc(N3CCS(=O)(=O)CC3)cc2)CC1 [Example 121, (1S,2R)-N-(1-cyanocyclopropyl)-2-(5-(4-(1,1-dioxidothiomorpho-lino)phenyl)-2-(4-(tetrahydro-2H-pyran-4-yl)phenyl)thiazol-4-yl)cyclohexane-carboxamide]
IC50 (human cathepsin F): 1110 nM
IC50 (human cathepsin K): 1.5 nM

N#CC1(NC(=O)[C@@H]2CCCC[C@H]2c2nc(-c3ccc(F)c(C4CCOCC4)c3)sc2-c2ccc(N3CCS(=O)(=O)CC3)cc2)CC1 [Example 122, (1R,2R)-N-(1-cyanocyclopropyl)-2-(5-(4-(1,1-dioxidothiomorpho-lino)phenyl)-2-(4-fluoro-3-(tetrahydro-2H-pyran-4-yl)phenyl)thiazol-4-yl)cyclohexane-carboxamide]
IC50 (human cathepsin F): 1110 nM
IC50 (human cathepsin K): 2.2 nM

N#CCNC(=O)[C@@H]1C[C@@H](F)CC[C@H]1c1nc(-c2cncc(F)c2)sc1-c1ccc(N2CCS(=O)(=O)CC2)cc1 [Example 123, (1R,2R,5S)-N-(cyanomethyl)-2-(5-(4-(1,1-dioxidothiomorpho-lino)phenyl)-2-(5-fluoropyridin-3-yl)thiazol-4-yl)-5-fluorocyclohexane-carboxamide]
IC50 (human cathepsin F): 2490 nM
IC50 (human cathepsin K): 1.7 nM

N#CCNC(=O)[C@@H]1C[C@@H](F)CC[C@H]1c1nc(-c2ccc(F)cn2)sc1-c1ccc(N2CCS(=O)(=O)CC2)cc1 [Example 124, (1R,2R,5S)-N-(cyanomethyl)-2-(5-(4-(1,1-dioxidothiomorpho-lino)phenyl)-2-(5-fluoropyridin-2-yl)thiazol-4-yl)-5-fluorocyclohexane-carboxamide]
IC50 (human cathepsin F): 3120 nM
IC50 (human cathepsin K): 1.8 nM

CS(=O)(=O)c1ccc(-c2sc(-c3cncc(F)c3)nc2[C@@H]2CCCC[C@H]2C(=O)NC2(C#N)CC2)cc1 [Example 125, (1R,2R)-N-(1-cyanocyclopropyl)-2-(2-(5-fluoropyridin-3-yl)-5-(4-(methylsulfonyl)phenyl)thiazol-4-yl)cyclohexane-carboxamide]
IC50 (human cathepsin F): 310 nM
IC50 (human cathepsin K): 7.5 nM
